{
  "source": "patent EP2535046A1",
  "about": "(priority 2011, dated 2012)",
  "key": {"nNOS": {"system": "nNOS", "set-up": "species or system mice", "conditions": "mouse, in vivo"}, "[1]": {"system": "IL-6, CXCL10, IFN-γ and TNFα", "set-up": "species or system mice", "conditions": "mouse, in vivo"}, "Fkbp51": {"system": "Fkbp51", "set-up": "species or system mice", "conditions": "mouse, in vivo"}, "RABV [2]": {"system": "RABV", "set-up": "species or system mice", "conditions": "mouse, in vivo"}, "[3]": {"system": "thymocytes and splenocytes", "set-up": "species or system mice", "conditions": "mouse, in vivo"}, "[4]": {"conditions": "mouse, in vivo"}, "splenocytes subsets": {"system": "splenocytes subsets", "set-up": "species or system mice", "conditions": "mouse, in vivo"}, "RABV [5]": {"system": "RABV", "set-up": "species or system mice", "conditions": "mouse, in vivo", "remark": "listed apart in the source"}, "RABV CVS-NIV": {"system": "RABV CVS-NIV", "set-up": "species or system C57BL/6J mice", "conditions": "mouse, in vivo"}, "[6]": {"system": "STAT3, STAT3-P, ERK1/2, phosphorylated-ERK1/2 (Thr202/Tyr204)", "set-up": "species or system mice", "conditions": "mouse, in vivo"}},
  "data": [
    {"smiles": "CNC1(C)C2CCC(C2)C1(C)C", "note": "(stereo not drawn) [mecamylamine, N,2,3,3-Tetramethylbicyclo[2.2.1] heptan-2 amine]", "values": [
      {"measurement": "nNOS transcription in the brain", "setting": "nNOS", "value": "block the nNOS decrease"},
      {"measurement": "IFN-γ and TNFα transcription in the spinal cord", "setting": "[1]", "value": "slowed-down"},
      {"measurement": "IL6 or CXCL10 kinetic in the spinal cord", "setting": "[1]", "value": "no effect"},
      {"measurement": "cytokines expression at transcriptional level (IL-6, CXCL10, IFN-γ, TNFα) in the brain", "setting": "[1]", "value": "did not modify significantly"},
      {"measurement": "inflammatory cytokines expression in the liver", "setting": "[1]", "value": "No difference"},
      {"measurement": "transcription of the glucocorticoid-inducible gene Fkbp51", "setting": "Fkbp51", "value": "no effect"},
      {"measurement": "RABV N protein transcripts among survivors", "setting": "RABV [2]", "value": "less viral transcripts than the mock-treated animals"},
      {"measurement": "number of splenocytes", "setting": "[3]", "value": "increased the number of splenocytes"},
      {"measurement": "cellularity of the spleen (number of splenocytes)", "setting": "[3]; ip, 2 mg/kg", "value": "protects cellularity of the spleen"},
      {"measurement": "number of thymocytes (RABV-mediated drop)", "setting": "[3]; ip, 2 mg/kg", "value": "no effect on the drop of thymocytes"},
      {"measurement": "side effects such as weight loss or behavior modification", "setting": "[4]", "value": "does not induced obvious side effects"},
      {"measurement": "main subsets of spleen cells (TCRαβ, CMH class II, CD4, CD8, plasmocytes expressing IgG)", "setting": "splenocytes subsets", "value": "prevents the RABV-mediated disappearance"},
      {"measurement": "numbers of CD4 T cells expressing CD25 and numbers of CD3 expressing CD69", "setting": "splenocytes subsets", "value": "restored"},
      {"measurement": "effect on RABV specific neutralizing antibodies", "setting": "RABV [5]", "value": "no effect"},
      {"measurement": "RABV pathogenesis", "setting": "RABV CVS-NIV", "value": "did not modify RABV pathogenesis"},
      {"measurement": "clinical scores", "setting": "RABV CVS-NIV", "value": "decreases the severity of the clinical scores"},
      {"measurement": "weight loss", "setting": "RABV CVS-NIV", "value": "interrupted the weight loss"},
      {"measurement": "expression and phosphorylation of STAT3 and ERK1/2 in the brain", "setting": "[6]", "value": "reduces expression and phosphorylation of STAT3 and ERK1/2 to levels similar to those observed in the non-infected brain"}
    ]}
  ]
}
